Source: ChEMBL document CHEMBL1795340, “A discovery of novel Mycobacterium tuberculosis pantothenate synthetase inhibitors based on the molecular mechanism of actinomycin D inhibition” (Bioorg Med Chem Lett, 2011)
Converted amounts (≈) assume the structure as drawn. Structures can show the parent of a compound that is named as a salt. Numbered stars: 1 amine (or outer) side, 2 acyl side, 3 side chain; on linkers, the order of the positions; unused ones are H or OH. Bridge positions count the residues as written; N and C are the ends. Square brackets hold non-standard residues; d marks the D form. Peptide text beside a SMILES is read from it. I, II: the chains in the order shown. Actinocin(9to1) = Cc1c2oc3c(C)ccc(C(=O)[*:1])c3nc-2c(C(=O)[*:2])c(N)c1=O; NMeV = CN[C@H](C(=O)O)C(C)C; Sar = CNCC(=O)O

Key:
Pantothenate synthetase [1] = molecular target: T1, Pantothenate synthetase (Mycobacterium tuberculosis, UniProt P9WIL5); assay: Inhibition of Mycobacterium tuberculosis pantothenate synthetase by high throughput screening method
T1 sequence (P9WIL5 whole entry): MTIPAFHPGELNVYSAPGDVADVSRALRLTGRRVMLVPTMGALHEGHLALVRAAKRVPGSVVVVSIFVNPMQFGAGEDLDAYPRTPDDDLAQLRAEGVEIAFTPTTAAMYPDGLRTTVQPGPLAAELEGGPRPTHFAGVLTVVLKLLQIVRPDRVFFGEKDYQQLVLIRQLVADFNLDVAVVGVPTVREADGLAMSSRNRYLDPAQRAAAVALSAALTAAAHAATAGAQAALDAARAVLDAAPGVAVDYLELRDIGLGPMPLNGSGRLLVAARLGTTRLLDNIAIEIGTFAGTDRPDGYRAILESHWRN

[2] = molecular target: T2, Pantothenate synthetase (Mycobacterium tuberculosis) (UniProt P9WIL5); assay: Inhibition of Mycobacterium tuberculosis pantothenate synthetase at 50 uM by high throughput screening method relative to control
T2 sequence (whole entry): T1 sequence (P9WIL5 whole entry)

Pantothenate synthetase [3] = molecular target: T1, Pantothenate synthetase; assay: Competitive inhibition of Mycobacterium tuberculosis pantothenate synthetase using ATP by Dixon plot analysis
Pantothenate synthetase [4] = molecular target: T1, Pantothenate synthetase; assay: Competitive inhibition of Mycobacterium tuberculosis pantothenate synthetase using beta-alanine by Dixon plot analysis
[5] = test system: Mycobacterium tuberculosis; assay: Antimycobacterial activity against Mycobacterium tuberculosis H37Rv; format: functional

Cc1c2oc3c(C)ccc(C(=O)N[C@@H]4C(=O)N[C@H](C(C)C)C(=O)N5CCC[C@H]5C(=O)N(C)CC(=O)N(C)[C@@H](C(C)C)C(=O)O[C@@H]4C)c3nc-2c(C(=O)N[C@@H]2C(=O)N[C@H](C(C)C)C(=O)N3CCC[C@H]3C(=O)N(C)CC(=O)N(C)[C@@H](C(C)C)C(=O)O[C@@H]2C)c(N)c1=O [DACTINOMYCIN] (I: T[dV]P[Sar][NMeV] / II: T[dV]P[Sar][NMeV]; ester I:1-I:C, II:1-II:C; linker I:N-II:N via Actinocin(9to1)) was tested. Which IC50 (Pantothenate synthetase [1]) did it give?
Its IC50 is 251 µM.

Which results are given for COC(=O)c1cc2c(OCc3ccccc3)cc(N)cc2[nH]1?
IC50 (Pantothenate synthetase [1]): 22.4 µM; inhibition [2]: 69.4%; Ki (Pantothenate synthetase [3]): 1.4 µM; Ki (Pantothenate synthetase [4]): 19.7 µM; MIC [5]: 54 µM (≈ 16 µg/mL)

Which inhibition [2] does the source give for C=C/C=C/C=C/c1cccc(NNC(=O)CCC(=O)O)c1 here?
Its inhibition is 27.1%.

For CCN(CC)CCOC(=O)C(Cc1cccc2ccccc12)CC1CCCO1 (stereo not drawn) [NAFRONYL OXALATE], which IC50 (Pantothenate synthetase [1]) is on record?
Its IC50 is 398 µM.
